Where “and” joins values, the source holds several entries; their conditions need not be identical. Identical values can stand only once.
Test system: 556581-035-R-J1-PDC spheroids with HUVEC/MSC, viability
Test: Anticancer human tumor 556581-035-R-J1-PDC patient-derived ovarian carcinoma cell line growth inhibition [IpAb]
Settings: for viability, T/C: stronger effect = lower value; active = viability on the fitted dose curve at most 10% of control; inactive = the rest
In short: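 Multi-cell spheroids of 60% tumour cells, 25% HUVEC and 15% MSC in ultra-low-attachment U-bottom wells, treated with agents combined with ipatasertib or abemaciclib. Half-log ranges top out near clinical Cmax, or 10 microM when Cmax is unknown.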

[1] = curve of first compound, second compound 0.1 µM
[2] = curve of first compound, second compound 0.316 µM
[3] = curve of first compound, second compound 1 µM
[4] = curve of first compound, second compound 3.16 µM
[5] = curve of first compound, second compound 10 µM
[6] = second compound 0.1 µM, first compound 0.0316 µM
[7] = second compound 0.1 µM, first compound 0.1 µM
[8] = second compound 0.316 µM, first compound 0.0316 µM
[9] = second compound 0.316 µM, first compound 0.1 µM
[10] = second compound 1 µM, first compound 0.0316 µM
[11] = second compound 1 µM, first compound 0.1 µM
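Also: spheroids exposed to compounds for 7 days before readout.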

CC(=O)c1c(C)c2cnc(Nc3ccc(N4CCNCC4)cn3)nc2n(C2CCCC2)c1=O + CC(C)NCC(C(=O)N1CCN(c2ncnc3c2C(C)CC3O)CC1)c1ccc(Cl)cc1
> 0.3 µM: IC50 [1] | IC50 [2] | IC50 [3] | IC50 [4]
inactive: viability, T/C (second compound 0.1 µM, first compound 0.000949 µM) 98.2% | viability, T/C (second compound 0.1 µM, first compound 0.003 µM) 115% | viability, T/C (second compound 0.1 µM, first compound 0.00949 µM) 95.5% | viability, T/C (second compound 0.1 µM, first compound 0.03 µM) 96% | viability, T/C (second compound 0.1 µM, first compound 0.0949 µM) 99% | viability, T/C (second compound 0.1 µM, first compound 0.3 µM) 87.2% | viability, T/C (second compound 0.316 µM, first compound 0.000949 µM) 77.8% | viability, T/C (second compound 0.316 µM, first compound 0.003 µM) 90.4% | viability, T/C (second compound 0.316 µM, first compound 0.00949 µM) 85.9% | viability, T/C (second compound 0.316 µM, first compound 0.03 µM) 76% | viability, T/C (second compound 0.316 µM, first compound 0.0949 µM) 85.3% | viability, T/C (second compound 0.316 µM, first compound 0.3 µM) 82.4% | viability, T/C (second compound 1 µM, first compound 0.000949 µM) 59.9% | viability, T/C (second compound 1 µM, first compound 0.003 µM) 65.7% | viability, T/C (second compound 1 µM, first compound 0.00949 µM) 68.1% | viability, T/C (second compound 1 µM, first compound 0.03 µM) 56.4% | viability, T/C (second compound 1 µM, first compound 0.0949 µM) 65.3% | viability, T/C (second compound 1 µM, first compound 0.3 µM) 63.5% | viability, T/C (second compound 3.16 µM, first compound 0.000949 µM) 57.8% | viability, T/C (second compound 3.16 µM, first compound 0.003 µM) 61.7% | viability, T/C (second compound 3.16 µM, first compound 0.00949 µM) 49.9% | viability, T/C (second compound 3.16 µM, first compound 0.03 µM) 55.4% | viability, T/C (second compound 3.16 µM, first compound 0.0949 µM) 58.1% | viability, T/C (second compound 3.16 µM, first compound 0.3 µM) 58% | viability, T/C (second compound 10 µM, first compound 0.000949 µM) 47.9% | viability, T/C (second compound 10 µM, first compound 0.003 µM) 47.4% | viability, T/C (second compound 10 µM, first compound 0.00949 µM) 48.6% | viability, T/C (second compound 10 µM, first compound 0.03 µM) 49.6% | viability, T/C (second compound 10 µM, first compound 0.0949 µM) 45.8% | viability, T/C (second compound 10 µM, first compound 0.3 µM) 48.4%
< 0.000949 µM: IC50 [5]

Cn1cnc2c(F)c(Nc3ccc(Br)cc3Cl)c(C(=O)NOCCO)cc21
inactive: viability, T/C (compound 0.00949 µM) 94.9% and 121% | viability, T/C (compound 0.03 µM) 95% and 99.7% | viability, T/C (compound 0.0949 µM) 92.9% and 109% | viability, T/C (compound 0.3 µM) 74.6% and 91.1% | viability, T/C (compound 0.949 µM) 45.2% and 43% | viability, T/C (compound 3 µM) 14.4% and 14%
0.779 µM and 0.805 µM: IC50 (curve of compound)

Cn1ncnc1[C@H]1c2n[nH]c(=O)c3cc(F)cc(c23)N[C@@H]1c1ccc(F)cc1 + CC(C)NCC(C(=O)N1CCN(c2ncnc3c2C(C)CC3O)CC1)c1ccc(Cl)cc1
> 0.1 µM: IC50 [1] | IC50 [3] | IC50 [4]
inactive: viability, T/C (second compound 0.1 µM, first compound 0.000316 µM) 106% | viability, T/C (second compound 0.1 µM, first compound 0.001 µM) 93% | viability, T/C (second compound 0.1 µM, first compound 0.00316 µM) 88% | viability, T/C (second compound 0.1 µM, first compound 0.01 µM) 86.1% | viability, T/C [6] 82.6% | viability, T/C [7] 64.2% | viability, T/C (second compound 0.316 µM, first compound 0.000316 µM) 92.7% | viability, T/C (second compound 0.316 µM, first compound 0.001 µM) 87.5% | viability, T/C (second compound 0.316 µM, first compound 0.00316 µM) 78% | viability, T/C (second compound 0.316 µM, first compound 0.01 µM) 59.7% | viability, T/C [8] 67.2% | viability, T/C [9] 46.8% | viability, T/C (second compound 1 µM, first compound 0.000316 µM) 70.6% | viability, T/C (second compound 1 µM, first compound 0.001 µM) 60% | viability, T/C (second compound 1 µM, first compound 0.00316 µM) 65.9% | viability, T/C (second compound 1 µM, first compound 0.01 µM) 52.2% | viability, T/C [10] 65.4% | viability, T/C [11] 55.4% | viability, T/C (second compound 3.16 µM, first compound 0.000316 µM) 51.2% | viability, T/C (second compound 3.16 µM, first compound 0.001 µM) 54.1% | viability, T/C (second compound 3.16 µM, first compound 0.00316 µM) 51.5% | viability, T/C (second compound 3.16 µM, first compound 0.01 µM) 54.8% | viability, T/C (second compound 3.16 µM, first compound 0.0316 µM) 44.2% | viability, T/C (second compound 3.16 µM, first compound 0.1 µM) 54.8% | viability, T/C (second compound 10 µM, first compound 0.000316 µM) 48.6% | viability, T/C (second compound 10 µM, first compound 0.001 µM) 46.3% | viability, T/C (second compound 10 µM, first compound 0.00316 µM) 42.9% | viability, T/C (second compound 10 µM, first compound 0.01 µM) 35.6% | viability, T/C (second compound 10 µM, first compound 0.0316 µM) 44.2% | viability, T/C (second compound 10 µM, first compound 0.1 µM) 36.2%
0.0943 µM: IC50 [2]
< 0.000316 µM: IC50 [5]

C=CCn1c(=O)c2cnc(Nc3ccc(N4CCN(C)CC4)cc3)nc2n1-c1cccc(C(C)(C)O)n1 + CCN1CCN(Cc2ccc(Nc3ncc(F)c(-c4cc(F)c5nc(C)n(C(C)C)c5c4)n3)nc2)CC1
inactive: viability, T/C (second compound 0.01 µM, first compound 0.0316 µM) 96.9% | viability, T/C (second compound 0.01 µM, first compound 0.1 µM) 81.9% | viability, T/C (second compound 0.01 µM, first compound 0.316 µM) 32.1% | viability, T/C (second compound 0.01 µM, first compound 1 µM) 35.9% | viability, T/C (second compound 0.01 µM, first compound 3.16 µM) 42% | viability, T/C (second compound 0.01 µM, first compound 10 µM) 44.4% | viability, T/C (second compound 0.0316 µM, first compound 0.0316 µM) 102% | viability, T/C (second compound 0.0316 µM, first compound 0.1 µM) 78.4% | viability, T/C (second compound 0.0316 µM, first compound 0.316 µM) 27.8% | viability, T/C (second compound 0.0316 µM, first compound 1 µM) 37.2% | viability, T/C (second compound 0.0316 µM, first compound 3.16 µM) 51.3% | viability, T/C (second compound 0.0316 µM, first compound 10 µM) 36.3% | viability, T/C [6] 83.3% | viability, T/C [7] 66.3% | viability, T/C (second compound 0.1 µM, first compound 0.316 µM) 31.8% | viability, T/C (second compound 0.1 µM, first compound 1 µM) 40.9% | viability, T/C (second compound 0.1 µM, first compound 3.16 µM) 50.6% | viability, T/C (second compound 0.1 µM, first compound 10 µM) 41.4% | viability, T/C [8] 91.4% | viability, T/C [9] 60.7% | viability, T/C (second compound 0.316 µM, first compound 0.316 µM) 29.2% | viability, T/C (second compound 0.316 µM, first compound 1 µM) 38.1% | viability, T/C (second compound 0.316 µM, first compound 3.16 µM) 48.1% | viability, T/C (second compound 0.316 µM, first compound 10 µM) 40.7% | viability, T/C [10] 54.5% | viability, T/C [11] 41.1% | viability, T/C (second compound 1 µM, first compound 0.316 µM) 32.9% | viability, T/C (second compound 1 µM, first compound 1 µM) 31.5% | viability, T/C (second compound 1 µM, first compound 3.16 µM) 42.5% | viability, T/C (second compound 1 µM, first compound 10 µM) 13.9%
0.211 µM: IC50 [1]
0.0368 µM: IC50 [3]
0.225 µM: IC50 (curve of first compound, second compound 0.0316 µM)
0.177 µM: IC50 [2]
0.233 µM: IC50 (curve of first compound, second compound 0.01 µM)
